Data set [1] concerns Stenotrophomonas maltophilia. The experiment in a line: Inhibition of biofilm formation in Stenotrophomonas maltophilia K279a at 50 uM incubated for 24 hrs by crystal violet staining based analysis. Type of data set: functional, organism-based.
The subject of data set [2] is Candida albicans. The experiment in a line: Inhibition of biofilm formation in RFP-expressing Candida albicans M2396 at 50 uM incubated for 24 hrs by crystal violet staining based analysis relative to control. Type of data set: functional.
Data set [3] relates to Pseudomonas aeruginosa. Description: Antibiofilm activity against Pseudomonas aeruginosa PAR7244 assessed as reduction in biofilm formation at 50 uM incubated for 24 hrs by crystal violet staining based analysis relative to control. The arrangement: scale not given: the % may be the effect or the level left. Type of data set: functional.
Data set [4] relates to Pseudomonas aeruginosa. The experiment in a line: Antibacterial activity against eYFP labeled Pseudomonas aeruginosa PAO1 assessed as inhibition of bacterial growth at 50 uM incubated for 20 hrs by broth microdilution method relative to control. On the set-up: scale not given: the % may be the effect or the level left. Type of data set: functional.
Data set [5] concerns Stenotrophomonas maltophilia. Description: Antibacterial activity against Stenotrophomonas maltophilia K279a assessed as bacterial growth inhibition at 50 uM incubated for 20 hrs by broth microdilution method. Type of data set: functional, organism-based.
A short description of data set [6]: Toxicity in Galleria mellonella larvae assessed as reduction in animal survival at 100 uM.
Data set [7] in a line: Toxicity in Galleria mellonella larvae assessed as signs of melanization at 100 uM.
Data set [8] has as its system Pseudomonas aeruginosa. Description: Inhibition of biofilm formation in eYFP labeled Pseudomonas aeruginosa PAO1 at 50 uM incubated for 24 hrs by crystal violet staining based analysis relative to control. Type of data set: functional.
Data set [9] deals with Pseudomonas aeruginosa. The experiment in a line: Antibacterial activity against Pseudomonas aeruginosa PAR7244 assessed as bacterial growth inhibition at 50 uM incubated for 20 hrs by broth microdilution method. Type of data set: functional, organism-based. A general note: Broth dilution looks for growth in wells or tubes with falling amounts of substance.
Data set [10] deals with HK-2. Description: Cytotoxicity against human HK-2 cells assessed as reduction in cell survival at 50 uM incubated for 24 to 48 hrs by MTT assay. Type of data set: toxicity, cell-based. The settings on record: hk-2, 50 µM, time 24-48 hrs.
Data set [11] has as its system Pseudomonas aeruginosa. Description: Antibacterial activity against Pseudomonas aeruginosa PAR7244 infected in Galleria mellonella larvae assessed as increase in survival rate at 50 uM measured every 24 hrs (reference value: 48 %). Type of data set: functional.
Data set [12] has as its system Staphylococcus aureus. The experiment in a line: Inhibition of biofilm formation in Staphylococcus aureus Newman ATCC 25904 at 50 uM incubated for 24 hrs by crystal violet staining based assay relative to control. Type of data set: functional.
The subject of data set [13] is Candida albicans. Description: Inhibition of biofilm formation in developmental phase of Candida albicans M2396 at 50 uM incubated for 24 hrs by crystal violet staining based analysis relative to control. Type of data set: functional.
Data set [14] deals with Candida albicans. Description: Inhibition of biofilm formation in Candida albicans M2396 at 50 uM incubated for 24 hrs by crystal violet staining based analysis. Type of data set: functional, organism-based.
Data set [15] deals with Candida albicans. The experiment in a line: Inhibition of biofilm formation in developmental phase of Candida albicans M2396 at 50 uM incubated for 24 hrs by crystal violet staining based analysis. Type of data set: functional, organism-based.
The test system of data set [16] is Pseudomonas aeruginosa. The experiment in a line: Antibiofilm activity against Pseudomonas aeruginosa PAR7244 assessed as reduction in biofilm formation at 50 uM incubated for 24 hrs by crystal violet staining based analysis. Type of data set: functional, organism-based.
For data set [17], the system named is Candida albicans. Description: Antibiofilm activity against Candida albicans M2396 at 50 uM incubated for 24 hrs by confocal laser-scanning microscopy. Type of data set: functional, organism-based.
Data set [18] relates to Candida albicans. The experiment in a line: Antibiofilm activity against Candida albicans M2396/Pseudomonas aeruginosa PA01 dual-species at 50 uM incubated for 24 hrs by confocal laser-scanning microscopy. Type of data set: functional, organism-based.
In data set [19] the test system is Escherichia coli. The experiment in a line: Antibiofilm activity against Escherichia coli ATCC 9637 assessed as reduction in biofilm formation at 50 uM incubated for 24 hrs by crystal violet staining based assay. Type of data set: functional, organism-based.
Data set [20] concerns Candida albicans. Description: Antifungal activity against RFP-expressing Candida albicans M2396 assessed as fungal growth inhibition at 50 uM incubated for 20 hrs by microplate reader analysis. Type of data set: functional, organism-based.
Data set [21] concerns Escherichia coli. The experiment in a line: Antibacterial activity against Escherichia coli ATCC 9637 assessed as bacterial growth inhibition at 50 uM incubated for 20 hrs by broth microdilution method relative to control. Type of data set: functional. The arrangement: scale not given: the % may be the effect or the level left.
The subject of data set [22] is Pseudomonas aeruginosa. Description: Antibiofilm activity against Pseudomonas aeruginosa PAO1 at 50 uM incubated for 24 hrs by confocal laser-scanning microscopy. Type of data set: functional, organism-based.
Data set [23] deals with Salmonella typhimurium. The experiment in a line: Antibacterial activity against Salmonella enterica subsp. enterica serovar Typhimurium assessed as bacterial growth inhibition at 50 uM incubated for 20 hrs by broth microdilution method. Type of data set: functional, organism-based.
In data set [24] the test system is Salmonella typhimurium. The experiment in a line: Antibiofilm activity against Salmonella enterica subsp. enterica serovar Typhimurium assessed as reduction in biofilm formation at 50 uM incubated for 24 hrs by crystal violet staining based assay relative to control. Type of data set: functional. The arrangement: scale not given: the % may be the effect or the level left.

The source made the active and inactive calls. The calls are words filed in the database; no cut-off is given here.

The source of these data is ChEMBL document CHEMBL5352404, “Synthesis and evaluation of novel furanones as biofilm inhibitors in opportunistic human pathogens” (Eur J Med Chem, 2022).

A word on the inhibition: it is the relative decrease from the control value, in per cent. As for `CC1=CC(=O)OC1=C(Br)Br`, the inhibition entry in [1] is “inactive”. Moreover, the figures for the inhibition at 50 µM in [2] and in data set [8] were 38% and 70%, respectively. Also, the Activity in [3] is recorded as 44%; in [4], 11%; in [6] it was “Non-Toxic”; in data set [7], “Non-Toxic”; in [10], “Toxic”. In addition, the result in data set [5] and in data set [9] was inactive.

In the case of `COc1cccc(C(=C2C=CC(=O)O2)c2cccc(OC)c2)c1`, in data set [1], the inhibition result was “inactive”. Also, in data set [11], the survival at 50 µM came to 72%. The inhibition at 50 µM turned out to be 53% in data set [2], 44% in data set [8], 30% in data set [12] and 71% in [13]. Besides, the Activity entry in data set [4] was “<=5%”; in data set [6], “Non-Toxic”; in data set [7], “Non-Toxic”; in data set [10], “Non-Toxic”. In addition, the result in [5] and in data set [9] was inactive.

As for `O=C1C=C/C(=C/Br)O1`, the inhibition result in data set [1] and in [15] was “inactive” throughout. Also, the inhibition entry in data set [14] was “Active”. Moreover, the result in [16], in data set [5], in data set [9] and in data set [19] was inactive. Further, the result in data set [17], in data set [18] and in data set [20] was Active. Besides, the Activity result in [4] is on record as “<=5%”; in data set [6] it was “Non-Toxic”; in [7], “Non-Toxic”; in data set [10], “Toxic”. For the same molecule, the inhibition at 50 µM in data set [8] worked out at 75%.

Consider `O=C1C=C/C(=C(\Cl)I)O1`, for which the inhibition result in data set [1] is “inactive”. Further, the Activity is recorded as 28% in [21], “<=5%” in data set [4] and 59% in [24]. Further, the result in [22], in data set [17], in data set [18] and in data set [23] was Active. In addition, the values for the inhibition at 50 µM in data set [2], in data set [8] and in data set [13] were 92%, 51% and 52%, respectively. Besides, the result in data set [5] and in data set [9] was inactive.
